Experimental data taken from PubChem BioAssay AID1745844 (Carcinogenic Potency Database (CPDB), 2022).
Calls of active or inactive are those of the source. The rule behind the calls is not given here. Peptide text beside a SMILES is read from it.

Tested on: rodent lifetime carcinogenesis bioassay, tumor incidence TD50
Assay: carcinogenic potency in animals, long-term in vivo studies, CPDB compilation (AID 1745844)

C/C=C(/C)C(=O)O[C@H]1CCN2CC=C(COC(=O)[C@@](O)([C@H](C)OC)C(C)(C)O)[C@H]12
0.141 mg/kg/day: TD50 (rat, strain Fischer 344, females, in feed, site: liver + multiple organs, lesion: adenoma, NOS + angiosarcoma + hepatocellular carcinoma + granulocytic leukemia + leukemia + lymphocytic leukemia + lymphoma + undiffer, dosed 92 weeks, study length 104 weeks)
0.152 mg/kg/day: TD50 (rat, strain Fischer 344, males, i.p., site: any site (literature study), lesion: several types, types named in the paper, dosed 56 weeks, study length 76 weeks) | TD50 (rat, strain Fischer 344, males, in feed, site: any site (literature study), lesion: several types, types named in the paper, dosed 98 weeks, study length 104 weeks)
active: TD50 (rat, strain Fischer 344, females, in feed, site: liver, lesion: adenoma, NOS + hepatocellular carcinoma, dosed 92 weeks, study length 104 weeks) 0.453 mg/kg/day | TD50 (rat, strain Fischer 344, females, in feed, site: liver, lesion: angiosarcoma, dosed 92 weeks, study length 104 weeks) 0.355 mg/kg/day | TD50 (rat, strain Fischer 344, females, in feed, site: multiple organs, lesion: granulocytic leukemia + lymphocytic leukemia + undifferentiated leukemia, dosed 92 weeks, study length 104 weeks) 0.387 mg/kg/day | TD50 (rat, strain Fischer 344, females, in feed, site: multiple organs, lesion: leukemia + lymphoma, dosed 92 weeks, study length 104 weeks) 0.325 mg/kg/day | TD50 (rat, strain Fischer 344, males, i.p., site: liver, lesion: hepatocellular carcinoma, dosed 56 weeks, study length 76 weeks) 0.397 mg/kg/day | TD50 (rat, strain Fischer 344, males, i.p., site: liver, lesion: several types, types named in the paper, dosed 56 weeks, study length 76 weeks) 0.341 mg/kg/day | TD50 (rat, strain Fischer 344, males, i.p., site: skin, lesion: squamous-cell carcinoma, dosed 56 weeks, study length 76 weeks) 0.794 mg/kg/day | TD50 (rat, strain Fischer 344, males, i.p., site: small intestine, lesion: adenocarcinoma, dosed 56 weeks, study length 76 weeks) 2.73 mg/kg/day | TD50 (rat, strain Fischer 344, males, in feed, site: liver, lesion: adenoma, NOS + hepatocellular carcinoma, dosed 98 weeks, study length 104 weeks) 0.908 mg/kg/day | TD50 (rat, strain Fischer 344, males, in feed, site: liver, lesion: angiosarcoma, dosed 55 weeks, study length 59 weeks) 0.688 mg/kg/day | TD50 (rat, strain Fischer 344, males, in feed, site: liver, lesion: angiosarcoma, dosed 98 weeks, study length 104 weeks) 0.355 mg/kg/day | TD50 (rat, strain Fischer 344, males, in feed, site: liver, lesion: carcinoma, dosed 55 weeks, study length 59 weeks) 0.954 mg/kg/day
1.33 mg/kg/day: TD50 (rat, strain Fischer 344, males, i.p., site: lung, lesion: adenoma, dosed 56 weeks, study length 76 weeks)
0.514 mg/kg/day: TD50 (rat, strain Fischer 344, males, in feed, site: all sites, lesion: leukemia + lymphoma, dosed 98 weeks, study length 104 weeks)
0.102 mg/kg/day: TD50 (rat, strain Fischer 344, females, in feed, site: any site (literature study), lesion: several types, types named in the paper, dosed 92 weeks, study length 104 weeks)
22.7 mg/kg/day: TD50 (rat, strain Fischer 344, females, in feed, site: liver, lesion: hepatocellular adenoma + hepatocellular carcinoma + neoplastic nodule, dosed 92 weeks, study length 104 weeks)
0.25 mg/kg/day: TD50 (rat, strain Fischer 344, males, in feed, site: liver, lesion: adenoma, NOS + angiosarcoma + hepatocellular carcinoma, dosed 98 weeks, study length 104 weeks)
7.43 mg/kg/day: TD50 (rat, strain Fischer 344, males, in feed, site: liver, lesion: hepatocellular adenoma + hepatocellular carcinoma + neoplastic nodule, dosed 98 weeks, study length 104 weeks)
0.217 mg/kg/day: TD50 (rat, strain Fischer 344, males, in feed, site: any site (literature study), lesion: several types, types named in the paper, dosed 55 weeks, study length 59 weeks)

Nc1ccc(N=Nc2ccc(N)cc2)cc1
inactive: carcinogen call (mouse, strain BALB/cLacDp, females, in feed, site: liver, lesion: several types, types named in the paper, dosed 60 weeks, study length 132 weeks) negative | TD50 (mouse, strain BALB/cLacDp, females, in feed, site: lung, lesion: several types, types named in the paper, dosed 60 weeks, study length 132 weeks) 240 mg/kg/day | carcinogen call (mouse, strain BALB/cLacDp, males, in feed, site: liver, lesion: several types, types named in the paper, dosed 60 weeks, study length 132 weeks) negative | TD50 (mouse, strain BALB/cLacDp, males, in feed, site: lung, lesion: several types, types named in the paper, dosed 60 weeks, study length 132 weeks) 213 mg/kg/day

COC(=O)[C@H](Cc1ccccc1)NC(=O)[C@@H](N)CC(=O)O (H-Asp-Phe-OMe)
inactive: carcinogen call (rat, strain Charles River CD (Sprague-Dawley), females, in feed, site: any site (literature study), lesion: several types, types named in the paper, dosed 104 weeks, study length 104 weeks) negative | TD50 (rat, strain Charles River CD (Sprague-Dawley), females, in feed, site: brain, lesion: several types, types named in the paper, dosed 104 weeks, study length 104 weeks) 118000 mg/kg/day | carcinogen call (rat, strain Charles River CD (Sprague-Dawley), females, in feed, site: liver, lesion: hepatoma, benign, dosed 104 weeks, study length 104 weeks) negative | carcinogen call (rat, strain Charles River CD (Sprague-Dawley), males, in feed, site: any site (literature study), lesion: several types, types named in the paper, dosed 104 weeks, study length 104 weeks) negative | TD50 (rat, strain Charles River CD (Sprague-Dawley), males, in feed, site: brain, lesion: several types, types named in the paper, dosed 104 weeks, study length 104 weeks) 666000 mg/kg/day | TD50 (rat, strain Charles River CD (Sprague-Dawley), males, in feed, site: liver, lesion: hepatoma, benign, dosed 104 weeks, study length 104 weeks) 1.3e+06 mg/kg/day | carcinogen call (rat, strain Slc-Wistar, females, in feed, site: brain, lesion: several types, types named in the paper, dosed 104 weeks, study length 104 weeks) negative | TD50 (rat, strain Slc-Wistar, males, in feed, site: brain, lesion: several types, types named in the paper, dosed 104 weeks, study length 104 weeks) 186000 mg/kg/day

CC1CN(N=O)CC(C)N1C (stereo unspecified)
6.18 mg/kg/day: TD50 (hamster, strain Syrian Golden, males, by gavage, site: liver, lesion: angiosarcoma, dosed 46 weeks, study length 69 weeks)
active: TD50 (hamster, strain Syrian Golden, males, by gavage, site: forestomach, lesion: papilloma, dosed 46 weeks, study length 69 weeks) 1.32 mg/kg/day | TD50 (hamster, strain Syrian Golden, males, by gavage, site: lung, lesion: adenoma, dosed 46 weeks, study length 69 weeks) 1.73 mg/kg/day | TD50 (hamster, strain Syrian Golden, males, by gavage, site: lung, lesion: carcinoma, dosed 46 weeks, study length 69 weeks) 3.2 mg/kg/day | TD50 (rat, strain Fischer 344, females, in drinking water, site: nasal cavity, lesion: olfactory carcinoma, dosed 30 weeks, study length 85 weeks) 0.151 mg/kg/day

C[C@@H]1O[C@@H](OC[C@H]2O[C@@H](Oc3c(-c4ccc(O)c(O)c4)oc4cc(O)cc(O)c4c3=O)[C@H](O)[C@@H](O)[C@@H]2O)[C@H](O)[C@H](O)[C@H]1O
inactive: TD50 (hamster, strain Syrian Golden, females, in feed, site: adrenal gland, lesion: cortical adenoma, dosed 104 weeks, study length 104 weeks) 132000 mg/kg/day | TD50 (hamster, strain Syrian Golden, females, in feed, site: uterus, lesion: leiomyoma, dosed 104 weeks, study length 104 weeks) 140000 mg/kg/day | carcinogen call (hamster, strain Syrian Golden, males, in feed, site: adrenal gland, lesion: cortical adenoma, dosed 104 weeks, study length 104 weeks) negative | carcinogen call (hamster, strain Syrian Golden, males, in feed, site: forestomach, lesion: papilloma, dosed 104 weeks, study length 104 weeks) negative | TD50 (rat, strain ACI, females, in feed, site: adrenal gland, lesion: pheochromocytoma, dosed 121 weeks, study length 121 weeks) 90400 mg/kg/day | TD50 (rat, strain ACI, females, in feed, site: heart, lesion: sarcoma, dosed 121 weeks, study length 121 weeks) 90400 mg/kg/day | TD50 (rat, strain ACI, females, in feed, site: pituitary gland, lesion: adenoma, dosed 77 weeks, study length 77 weeks) 8910 mg/kg/day | TD50 (rat, strain ACI, females, in feed, site: urinary bladder, lesion: papilloma, dosed 77 weeks, study length 77 weeks) 8910 mg/kg/day | TD50 (rat, strain ACI, males, in feed, site: adrenal gland, lesion: cortical adenoma, dosed 77 weeks, study length 77 weeks) 5710 mg/kg/day | TD50 (rat, strain ACI, males, in feed, site: colon, lesion: adenoma, dosed 121 weeks, study length 121 weeks) 72300 mg/kg/day | TD50 (rat, strain ACI, males, in feed, site: ileum, lesion: adenoma, dosed 121 weeks, study length 121 weeks) 72300 mg/kg/day | TD50 (rat, strain ACI, males, in feed, site: testis, lesion: interstitial-cell tumor, dosed 77 weeks, study length 77 weeks) 3530 mg/kg/day | TD50 (rat, strain Sprague-Dawley, females, by gavage, site: liver, lesion: hepatocellular carcinoma, dosed 104 weeks, study length 138 weeks) 44800 mg/kg/day | carcinogen call (rat, strain Sprague-Dawley, males, by gavage, site: liver, lesion: hepatocellular carcinoma, dosed 104 weeks, study length 134 weeks) negative

NCC(=O)O
3100 mg/kg/day: TD50 (rat, strain F344/DuCrj, females, in drinking water, site: uterus, lesion: endometrial stromal polyp, dosed 108 weeks, study length 108 weeks)
157000 mg/kg/day: TD50 (rat, strain F344/DuCrj, females, in drinking water, site: liver, lesion: neoplastic nodule, dosed 108 weeks, study length 108 weeks)
7550 mg/kg/day: TD50 (rat, strain F344/DuCrj, females, in drinking water, site: any site (literature study), lesion: several types, types named in the paper, dosed 108 weeks, study length 108 weeks)
active: TD50 (rat, strain F344/DuCrj, females, in drinking water, site: kidney/pelvis, lesion: transitional-cell papilloma, dosed 108 weeks, study length 108 weeks) 25700 mg/kg/day

CN(C)C(=O)Nc1ccc(Cl)c(Cl)c1
inactive: carcinogen call (mouse, strain B6AKF1, females, oral dosing, site: any site (literature study), lesion: several types, types named in the paper, dosed 76 weeks, study length 76 weeks) negative | carcinogen call (mouse, strain B6AKF1, females, oral dosing, site: liver, lesion: hepatoma, dosed 76 weeks, study length 76 weeks) negative | carcinogen call (mouse, strain B6AKF1, females, oral dosing, site: lung, lesion: adenoma, dosed 76 weeks, study length 76 weeks) negative | TD50 (mouse, strain B6AKF1, males, oral dosing, site: any site (literature study), lesion: several types, types named in the paper, dosed 76 weeks, study length 76 weeks) 260 mg/kg/day | carcinogen call (mouse, strain B6AKF1, males, oral dosing, site: liver, lesion: hepatoma, dosed 76 weeks, study length 76 weeks) negative | TD50 (mouse, strain B6AKF1, males, oral dosing, site: lung, lesion: adenoma, dosed 76 weeks, study length 76 weeks) 437 mg/kg/day | TD50 (mouse, strain B6C3F1, females, oral dosing, site: any site (literature study), lesion: several types, types named in the paper, dosed 76 weeks, study length 76 weeks) 388 mg/kg/day | carcinogen call (mouse, strain B6C3F1, females, oral dosing, site: liver, lesion: hepatoma, dosed 76 weeks, study length 76 weeks) negative | TD50 (mouse, strain B6C3F1, females, oral dosing, site: lung, lesion: adenoma, dosed 76 weeks, study length 76 weeks) 600 mg/kg/day | TD50 (mouse, strain B6C3F1, males, oral dosing, site: any site (literature study), lesion: several types, types named in the paper, dosed 76 weeks, study length 76 weeks) 361 mg/kg/day | TD50 (mouse, strain B6C3F1, males, oral dosing, site: liver, lesion: hepatoma, dosed 76 weeks, study length 76 weeks) 1150 mg/kg/day | TD50 (mouse, strain B6C3F1, males, oral dosing, site: lung, lesion: adenoma, dosed 76 weeks, study length 76 weeks) 1150 mg/kg/day

Cc1ccc2c(c1)C(N1CCN(C)CC1)=Nc1ccccc1S2
inactive: carcinogen call (rat, strain albino, females, in feed, site: mammary gland, lesion: fibroadenoma, dosed 78 weeks, study length 78 weeks) negative | carcinogen call (rat, strain albino, males, in feed, site: pituitary gland, lesion: adenoma, dosed 78 weeks, study length 78 weeks) negative
